Experimental data reported in ChEMBL document CHEMBL1130772, “New nonsteroidal androgen receptor modulators based on 4-(trifluoromethyl)-2(1H)-pyrrolidino[3,2-g] quinolinone” (Bioorg Med Chem Lett, 1998).

Target: T1, Glucocorticoid receptor (Homo sapiens) (UniProt P04150)
T1 sequence (whole entry): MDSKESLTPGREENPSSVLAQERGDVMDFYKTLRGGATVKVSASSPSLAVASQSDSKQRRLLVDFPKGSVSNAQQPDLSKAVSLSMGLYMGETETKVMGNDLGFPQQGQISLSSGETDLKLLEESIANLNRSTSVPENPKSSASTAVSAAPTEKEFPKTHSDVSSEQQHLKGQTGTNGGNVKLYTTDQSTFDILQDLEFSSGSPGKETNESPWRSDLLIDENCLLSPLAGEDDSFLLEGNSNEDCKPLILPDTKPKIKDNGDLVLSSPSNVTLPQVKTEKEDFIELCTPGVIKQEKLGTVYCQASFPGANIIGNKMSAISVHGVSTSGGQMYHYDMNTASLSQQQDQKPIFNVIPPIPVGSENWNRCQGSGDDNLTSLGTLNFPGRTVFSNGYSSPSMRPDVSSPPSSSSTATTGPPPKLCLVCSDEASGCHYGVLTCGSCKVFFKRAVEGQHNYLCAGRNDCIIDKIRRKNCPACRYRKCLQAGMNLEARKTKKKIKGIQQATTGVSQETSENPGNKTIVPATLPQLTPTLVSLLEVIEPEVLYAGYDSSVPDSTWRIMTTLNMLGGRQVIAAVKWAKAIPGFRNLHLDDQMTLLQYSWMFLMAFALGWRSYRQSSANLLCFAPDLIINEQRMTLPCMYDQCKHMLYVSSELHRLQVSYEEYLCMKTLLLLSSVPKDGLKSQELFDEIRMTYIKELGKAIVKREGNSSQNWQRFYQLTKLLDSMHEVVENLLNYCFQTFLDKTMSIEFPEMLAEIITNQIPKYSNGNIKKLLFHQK
Test: Antagonistic activity against Glucocorticoid receptor in co-transfected CV-1 cell
Type: functional, cell-based

| Structure (SMILES) | Efficacy [%] |
| --- | --- |
| C[C@H]1CC[C@H]2Nc3cc4c(cc3[C@H]2C1)c(C(F)(F)F)cc(=O)n4C | < 20 |
| CC1(C)CCC[C@]2(C)c3cc4c(C(F)(F)F)cc(O)nc4cc3N[C@H]12 | 31 |
| CN1c2cc3c(cc2[C@H]2CCCC[C@H]21)c(C(F)(F)F)cc(=O)n3C | < 20 |
